The record followed here is patent US20190134005A1 (BioMarin Pharmaceutical Inc., priority 2016, published 2019).

This experiment deals with T1, human CGT (Homo sapiens, UniProt Q16880).
T1 sequence (Q16880 21-541): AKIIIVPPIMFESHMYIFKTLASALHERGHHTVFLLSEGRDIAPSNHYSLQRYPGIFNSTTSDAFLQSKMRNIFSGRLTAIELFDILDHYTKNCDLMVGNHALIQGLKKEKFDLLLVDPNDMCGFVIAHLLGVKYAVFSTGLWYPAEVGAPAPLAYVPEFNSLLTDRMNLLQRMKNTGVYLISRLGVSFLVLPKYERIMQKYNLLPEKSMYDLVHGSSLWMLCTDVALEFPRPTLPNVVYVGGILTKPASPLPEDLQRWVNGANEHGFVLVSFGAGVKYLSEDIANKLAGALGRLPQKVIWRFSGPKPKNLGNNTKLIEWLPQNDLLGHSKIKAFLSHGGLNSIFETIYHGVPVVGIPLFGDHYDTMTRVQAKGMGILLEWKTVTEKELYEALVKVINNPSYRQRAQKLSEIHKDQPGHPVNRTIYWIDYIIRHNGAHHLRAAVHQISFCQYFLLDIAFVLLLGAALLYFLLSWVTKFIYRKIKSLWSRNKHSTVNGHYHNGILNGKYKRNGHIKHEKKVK
The experiment in a line: CGT Enzyme Assay (Biological Example 2, RapidFire/MS/MS method with 0.01% Tween 80 added). The class given is biochemical. The note with it: enzymatic assay, CHO/CGT lysate. An outline of the steps:
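Lysate of CHO cells transfected with full-length human CGT, 0.5% DMSO final, 0.01% Tween 80 added; reactions stopped with methanol:acetonitrile holding internal standard. C6-NBD-dihydro-galactosylceramide and C6-NBD-dihydro-ceramide measured by RapidFire/MS/MS (ESI negative), product peak area normalized to internal standard.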
`C[C@]1(C(F)(F)F)[C@@H](c2cccc(C#N)c2)N(c2ccc(Cl)cc2)C(=O)N1c1ccc(Cl)cc1` [Example 27-2, 3-((4R,5R)-1,3-bis(4-chlorophenyl)-5-methyl-2-oxo-5-(trifluoromethyl)imidazolidin-4-yl)benzonitrile]: the IC50 is under 1 µM.

For the compound `CCC[C@@]1(C)[C@@H](c2cccc(OC(F)(F)F)c2)N(c2ccc(C#N)cc2)C(=O)N1c1ccc(C#N)cc1` [Example 52-6, 4,4′-((4S,5R)-4-methyl-2-oxo-4-propyl-5-(3-(trifluoromethoxy)phenyl)imidazolidine-1,3-diyl)dibenzonitrile], the IC50 lay in the range of 10 to 30 µM.

As to `N#Cc1cccc([C@]23CCCC[C@H]2N(c2ccc(Cl)cc2)C(=O)N3c2ccc(Cl)cc2)c1` [Example 14-1, 3-((3aR,7aR)-1,3-bis(4-chlorophenyl)-2-oxooctahydro-3aH-benzo[d]imidazol-3a-yl)benzonitrile], the IC50 lay within 1 to 10 µM.

For `CCC[C@@]1(C)[C@H](c2cccc(C#N)c2)N(c2ccc(Cl)cc2)C(=O)N1c1ccc(Cl)cc1` [Example 33-2, 3-((4S,5S)-1,3-bis(4-chlorophenyl)-5-methyl-2-oxo-5-propylimidazolidin-4-yl)benzonitrile], the half-maximal inhibitory concentration (IC50) was 1 to 10 µM.

Take `O=C1N(c2ccc(Cl)cc2)C2CCCCC2(c2cccc(OC(F)(F)F)c2)N1c1ccc(Cl)cc1` (centres unmarked) [Example 15-1, 1,3-bis(4-chlorophenyl)-3a-(3-(trifluoromethoxy)phenyl)octahydro-2H-benzo[d]imidazol-2-one]: the IC50 lay in the range of 10 to 30 µM.

For `CC1(C)C(c2cccc(OC(F)F)c2)N(c2ccc(Cl)cc2)C(=O)N1c1ccc(Cl)cc1` (centres unmarked) [Example 9], the IC50 was under 1 µM.

`C[C@@H]1[C@@H](c2ccccc2)N(c2ccc(Br)cc2)C(=O)N1c1ccc(Br)cc1` [Example 2-2, (4R,5R)-1,3-bis(4-bromophenyl)-4-methyl-5-phenylimidazolidin-2-one]: the IC50 is under 1 µM.

In the case of `O=C1N(c2ccc(Br)cc2)C2CCCCC2N1c1ccc(Br)cc1` (centres unmarked) [Example 1], the IC50 fell in the range of 30 to 100 µM.

With `CC1(C)[C@H](c2cccc(C(F)(F)F)c2)N(c2ccc(Cl)cc2)C(=O)N1c1ccc(Cl)cc1` [Example 6-2, (S)-1,3-bis(4-chlorophenyl)-4,4-dimethyl-5-(3-(trifluoromethyl)phenyl)imidazolidin-2-one], the IC50 was under 1 µM.

`CCC[C@]1(C)[C@H](c2cccc(C#N)c2)N(c2ccc(Cl)cc2)C(=O)N1c1ccc(Cl)cc1` [Example 33-3, 3-((4S,5R)-1,3-bis(4-chlorophenyl)-5-methyl-2-oxo-5-propylimidazolidin-4-yl)benzonitrile] returned an IC50 of 1 to 10 µM.

`Cc1ccc(N2C(=O)N(c3ccc(C)cc3)C(C)(C)[C@@H]2c2cccc(OC(F)(F)F)c2)cc1` [Example 21-2, (S)-4,4-dimethyl-1,3-di-p-tolyl-5-(3-(trifluoromethoxy)phenyl)imidazolidin-2-one] gave a half-maximal inhibitory concentration (IC50) of under 1 µM.

For the compound `N#Cc1cccc([C@H]2N(c3ccc(Cl)cc3)C(=O)N(c3ccc(Cl)cc3)C23COC3)c1` [Example 30-1, (R)-3-(5,7-bis(4-chlorophenyl)-6-oxo-2-oxa-5,7-diazaspiro[3.4]octan-8-yl)benzonitrile], the half-maximal inhibitory concentration (IC50) is 10 to 30 µM.

Turning to `CCC[C@]1(C)[C@H](c2cccc(OC(F)(F)F)c2)N(c2ccc(Cl)cc2)C(=O)N1c1ccc(Cl)cc1` [Example 22-3, (4R,5S)-1,3-bis(4-chlorophenyl)-4-methyl-4-propyl-5-(3-(trifluoromethoxy)phenyl)imidazolidin-2-one], the half-maximal inhibitory concentration (IC50) was under 1 µM.

The compound `CC[C@@]1(C)[C@H](c2cccc(OC(F)(F)F)c2)N(c2ccc(Cl)cc2)C(=O)N1c1ccc(Cl)cc1` [Example 19-3, (4S,5S)-1,3-bis(4-chlorophenyl)-4-ethyl-4-methyl-5-(3-(trifluoromethoxy)phenyl)imidazolidin-2-one] had an IC50 of under 1 µM.

In turn, `CC1(C)[C@H](c2cccc(C#N)c2)N(c2ccc(C(F)(F)F)cc2)C(=O)N1c1ccc(C(F)(F)F)cc1` [Example 24-2, (S)-3-(5,5-dimethyl-2-oxo-1,3-bis(4-(trifluoromethyl)phenyl)imidazolidin-4-yl)benzonitrile] registered an IC50 of 10 to 30 µM.

`CC[C@@]1(C)[C@H](c2cccc(C#N)c2)N(c2ccc(Cl)cc2)C(=O)N1c1ccc(Cl)cc1` [Example 34-1, 3-((4S,5S)-1,3-bis(4-chlorophenyl)-5-ethyl-5-methyl-2-oxoimidazolidin-4-yl)benzonitrile]: the IC50 was under 1 µM.

Regarding `O=C1N(c2ccc(Cl)cc2)[C@@H]2CCC[C@]2(c2cccc(OC(F)(F)F)c2)N1c1ccc(Cl)cc1` [Example 12-2, (3aR,6aR)-1,3-bis(4-chlorophenyl)-3a-(3-(trifluoromethoxy)phenyl)hexahydrocyclopenta[d]imidazol-2(1H)-one], the IC50 was in the range of 10 to 30 µM.

On to `C[C@H]1[C@@H](c2ccccc2)N(c2ccc(Br)cc2)C(=O)N1c1ccc(Br)cc1` [Example 2-3, (4S,5R)-1,3-bis(4-bromophenyl)-4-methyl-5-phenylimidazolidin-2-one], for which the IC50 was in the range of 1 to 10 µM.

For `CC1(C)C(c2cccc(Cl)c2)N(c2ccc(Cl)cc2)C(=O)N1c1ccc(Cl)cc1` (centres unmarked) [Example 8], the concentration for half-maximal inhibition (IC50) is under 1 µM.

As for `Cc1ccc(N2C(=O)N(c3ccc(C#N)cc3)[C@H](c3cccc(C#N)c3)C2(C)C)cc1` [Example 48-1, (R)-3-(3-(4-cyanophenyl)-5,5-dimethyl-2-oxo-1-(p-tolyl)imidazolidin-4-yl)benzonitrile], the concentration for half-maximal inhibition (IC50) was in the range of 10 to 30 µM.

`Cc1ccc(N2C(=O)N(c3ccc(C)cc3)C3(COC3)[C@@H]2c2cccc(C#N)c2)cc1` [Example 32-2, (S)-3-(6-oxo-5,7-di-p-tolyl-2-oxa-5,7-diazaspiro[3.4]octan-8-yl)benzonitrile] displayed an IC50 of under 1 µM.

Consider `CC[C@]1(C)[C@H](c2cccc(OC(F)(F)F)c2)N(c2ccc(Cl)cc2)C(=O)N1c1ccc(Cl)cc1` [Example 19-2, (4R,5S)-1,3-bis(4-chlorophenyl)-4-ethyl-4-methyl-5-(3-(trifluoromethoxy)phenyl)imidazolidin-2-one], for which the IC50 was under 1 µM.

As for `N#Cc1cccc([C@@]23CCCC[C@@H]2N(c2ccc(Cl)cc2)C(=O)N3c2ccc(Cl)cc2)c1` [Example 14-2, 3-((3aS,7aS)-1,3-bis(4-chlorophenyl)-2-oxooctahydro-3aH-benzo[d]imidazol-3a-yl)benzonitrile], the IC50 is 10 to 30 µM.

As to `CC1(C)[C@H](c2cccc(OC(F)(F)F)c2)N(c2ccc(C(F)(F)F)cc2)C(=O)N1c1ccc(C(F)(F)F)cc1` [Example 20-2, (S)-4,4-dimethyl-5-(3-(trifluoromethoxy)phenyl)-1,3-bis(4-(trifluoromethyl)phenyl)imidazolidin-2-one], the IC50 is 10 to 30 µM.

On to `Cc1ccc(N2C(=O)N(c3ccc(Cl)cc3)[C@@H](c3cccc(OC(F)(F)F)c3)C2(C)C)cc1` [Example 56-2, (S)-1-(4-chlorophenyl)-4,4-dimethyl-3-(p-tolyl)-5-(3-(trifluoromethoxy)phenyl)imidazolidin-2-one], for which the IC50 is under 1 µM.

The compound `CCC[C@@]1(C)[C@@H](c2cccc(C#N)c2)N(c2ccc(Cl)cc2)C(=O)N1c1ccc(Cl)cc1` [Example 33-4, 3-((4R,5S)-1,3-bis(4-chlorophenyl)-5-methyl-2-oxo-5-propylimidazolidin-4-yl)benzonitrile] registered an IC50 of under 1 µM.

Compound `N#Cc1ccc(N2C(=O)N(c3ccc(Cl)cc3)[C@@H](c3cccc(OC(F)(F)F)c3)C23COC3)cc1` [Example 46-2, (S)-4-(7-(4-chlorophenyl)-6-oxo-8-(3-(trifluoromethoxy)phenyl)-2-oxa-5,7-diazaspiro[3.4]octan-5-yl)benzonitrile] yielded a half-maximal inhibitory concentration (IC50) of 1 to 10 µM.

On to `Cc1ccc(N2C(=O)N(c3ccc(C#N)cc3)C(C)(C)[C@@H]2c2cccc(C#N)c2)cc1` [Example 54-2, (S)-3-(1-(4-cyanophenyl)-5,5-dimethyl-2-oxo-3-(p-tolyl)imidazolidin-4-yl)benzonitrile], for which the concentration for half-maximal inhibition (IC50) was under 1 µM.

Take `N#Cc1cccc([C@@H]2N(c3ccc(Cl)cc3)C(=O)N(c3ccc(Cl)cc3)C23COC3)c1` [Example 30-2, (S)-3-(5,7-bis(4-chlorophenyl)-6-oxo-2-oxa-5,7-diazaspiro[3.4]octan-8-yl)benzonitrile]: the half-inhibitory concentration (IC50) was under 1 µM.

On to `CC1(C)[C@H](c2cccc(OC(F)(F)F)c2)N(c2cccc(Cl)c2)C(=O)N1c1cccc(Cl)c1` [Example 28-2, (S)-1,3-bis(3-chlorophenyl)-4,4-dimethyl-5-(3-(trifluoromethoxy)phenyl)imidazolidin-2-one], for which the IC50 was under 1 µM.

For `CCC1(CC)[C@@H](c2cccc(OC(F)(F)F)c2)N(c2ccc(Cl)cc2)C(=O)N1c1ccc(Cl)cc1` [Example 17-1, (R)-1,3-bis(4-chlorophenyl)-4,4-diethyl-5-(3-(trifluoromethoxy)phenyl)imidazolidin-2-one], the IC50 was under 1 µM.

In turn, `Cc1ccc(N2C(=O)N(c3ccc(C#N)cc3)[C@@H](c3cccc(C#N)c3)C23COC3)cc1` [Example 55-2, (S)-3-(7-(4-cyanophenyl)-6-oxo-5-(p-tolyl)-2-oxa-5,7-diazaspiro[3.4]octan-8-yl)benzonitrile] displayed an IC50 of 1 to 10 µM.

The IC50 is the point on the concentration scale where inhibition reaches its midpoint. Read a high IC50 as weaker potency.
